Results as given in US8835462B2, “Macrocyclic picolinamides as fungicides” (Dow AgroSciences LLC, priority 2012, dated 2014).
Read-outs that look alike come from different tables or passages of the source.

Experiments:
[1] = system: Mycosphaerella graminicola; Anamorph: Septoria tritici; test: Leaf blotch of wheat (SEPTTR) fungicidal activity on wheat seedlings; assay type: in vivo; settings: Zymoseptoria tritici
Protocol: Evaluation of Fungicidal Activity: Leaf Blotch of Wheat (Mycosphaerella Graminicola; Anamorph: Septoria tritici; Bayer Code […]) Technical grades of materials were dissolved in acetone, which were then mixed with nine volumes of water containing 110 ppm Triton X-100. The fungicide solutions were applied onto wheat seedlings using an automated booth sprayer to run-off. All sprayed plants were allowed to air dry prior to further handling. Wheat plants (variety Yuma) were grown from seed in a greenhouse in 50% mineral soil/50% soil-less Metro mix until the first leaf was fully emerged, with 7-10 seedlings per pot. These plants were inoculated with an aqueous spore suspension of Septoria tritici either prior to or after fungicide treatments. After inoculation the plants were kept in 100% relative humidity (one day in a dark dew chamber followed by two to three days in a lighted dew chamber at 20° C.) to permit spores to germinate and infect the leaf. The plants were then transferred to a greenhouse set at 20° C. for disease to develop. When disease symptoms were fully expressed on the 1st leaves of untreated plants, infection levels were assessed on a scale of 0 to 100 percent disease severity. Percent disease control was calculated using the ratio of disease severity on treated plants relative to untreated plants.

Puccinia triticina [2] = test: Fungicide mobility (dropline mobility test), wheat brown rust (PUCCRT); assay type: in vivo; settings: 1 ug/leaf, disease-free zone as percent of distance from marked line to leaf tip; for Dropline Mobility Test PUCCRT 1 DPM: 1 Day Protectant Mobility; for Dropline Mobility Test PUCCRT 3 DCM: 3 Day Curative Mobility
Protocol: Evaluation of Fungicide Mobility: Wheat Brown Rust (Puccinia Triticina; Synonym: Puccinia recondita f. sp. Tritici; Bayer Code PUCCRT):
“Yuma” wheat seedlings were used in the test. One mg of compound was dissolved in 9 μl of EC blank (emulsifiable concentrate) and 500 μl of acetone. Acetone was then evaporated overnight by leaving the vial open in a fume hood. Two milliliters of water containing 110 ppm Triton X-100 was added to each vial to prepare application solutions. A […] drop of formulated material was applied to a marked line on the adaxial surface 5 cm from the leaf tip of the primary leaves. The primary leaves were kept in a horizontal position. Each treatment had 6 replicates. Plants were inoculated with PUCCRT 1-day after (1DPM) or 3-day prior to (3DCM) compound applications. When rust was fully expressed on primary leaves on control plants, the zone of treated leaves that was disease-free in the acropetal direction was measured with a ruler and converted to percent of the distance from marked line to leaf tip.

Puccinia triticina [3] = test: Wheat brown rust (PUCCRT) fungicidal activity on wheat seedlings; assay type: in vivo
Protocol: Technical grades of materials were dissolved in acetone, which were then mixed with nine volumes of water containing 110 ppm Triton X-100. The fungicide solutions were applied onto wheat seedlings using an automated booth sprayer to run-off. All sprayed plants were allowed to air dry prior to further handling. Wheat plants (variety Yuma) were grown from seed in a greenhouse in 50% mineral soil/50% soil-less Metro mix until the first leaf was fully emerged, with 7-10 seedlings per pot. These plants were inoculated with an aqueous spore suspension of Septoria tritici either prior to or after fungicide treatments. After inoculation the plants were kept in 100% relative humidity (one day in a dark dew chamber followed by two to three days in a lighted dew chamber at 20° C.) to permit spores to germinate and infect the leaf. The plants were then transferred to a greenhouse set at 20° C. for disease to develop. When disease symptoms were fully expressed on the 1st leaves of untreated plants, infection levels were assessed on a scale of 0 to 100 percent disease severity. Percent disease control was calculated using the ratio of disease severity on treated plants relative to untreated plants. Evaluation of Fungicidal Activity: Wheat Brown Rust (Puccinia triticina; Synonym: Puccinia recondita f. sp. tritici; Bayer Code PUCCRT) Wheat plants (variety Yuma) were grown from seed in a greenhouse in 50% mineral soil/50% soil-less Metro mix until the first leaf was fully emerged, with 7-10 seedlings per pot. These plants were inoculated with an aqueous spore suspension of Puccinia triticina either prior to or after fungicide treatments. After inoculation the plants were kept in a dark dew room at 22° C. with 100% relative humidity overnight to permit spores to germinate and infect the leaf. The plants were then transferred to a greenhouse set at 24° C. for disease to develop. Fungicide formulation, application and disease assessment followed the procedures as described in the Example A.

[4] = 24 h, 1 Day Protectant, read-out: Disease Control SEPTTR 1 DP
[5] = 72 h, 3 Day Curative, read-out: Disease Control SEPTTR 3 DC
[6] = 24 h, 1 Day Protectant, read-out: Disease Control PUCCRT 1 DP
[7] = 72 h, 3 Day Curative, read-out: Disease Control PUCCRT 3 DC

| Structure (SMILES) | pest or weed control at 100 ppm [1, 4] [%] | pest or weed control at 100 ppm [1, 5] [%] | Dropline Mobility Test PUCCRT 1 DPM (Puccinia triticina [2]) | pest or weed control at 100 ppm (Puccinia triticina [3]; [6]) [%] | pest or weed control at 100 ppm (Puccinia triticina [3]; [7]) [%] | melting point [°C] | Dropline Mobility Test PUCCRT 3 DCM (Puccinia triticina [2]) |
| --- | --- | --- | --- | --- | --- | --- | --- |
| COc1ccnc(C(=O)N[C@H]2COC[C@H](Cc3ccccc3)[C@@H](Oc3ccccc3)[C@H](C)OC2=O)c1O [Compound 33] | 80 to 100 | 80 to 100 | B (More than 0-Less than 80) | 80 to 100 | 80 to 100 | – | – |
| C[C@@H]1OC(=O)[C@@H](NC(=O)OC(C)(C)C)COC[C@H](Cc2ccccc2)[C@H]1OC(=O)c1ccccc1 [Compound 61] | – | – | – | – | – | 54 to 63 | – |
| COC(=O)CCO[C@@H]1[C@@H](Cc2ccccc2)COC[C@H](NC(=O)c2nccc(OC)c2O)C(=O)O[C@H]1C [Compound 11] | 0 to 80 | 0 to 80 | – | 0 to 80 | 0 to 80 | – | – |
| COc1ccnc(C(=O)N[C@H]2COC[C@H](Cc3ccccc3)[C@@H](OCCCC(F)(F)F)[C@H](C)OC2=O)c1O [Compound 18] | 80 to 100 | 80 to 100 | B (More than 0-Less than 80) | 80 to 100 | 80 to 100 | – | B (More than 0-Less than 80) |
| COc1ccnc(C(=O)N[C@H]2COC[C@H](Cc3ccccc3)[C@@H](OC3CCCCC3)[C@H](C)OC2=O)c1O [Compound 29] | 0 to 80 | 80 to 100 | B (More than 0-Less than 80) | 80 to 100 | 80 to 100 | – | B (More than 0-Less than 80) |
| COc1ccnc(C(=O)N[C@H]2COC[C@H](Cc3ccccc3)[C@@H](OC3CCCCC3)[C@H](C)OC2=O)c1OCOC(C)=O [Compound 35] | 80 to 100 | 80 to 100 | B (More than 0-Less than 80) | 80 to 100 | 80 to 100 | – | – |
| COc1ccnc(C(=O)N[C@H]2COC[C@H](Cc3ccccc3)[C@@H](OCCC(C)C)[C@H](C)OC2=O)c1O [Compound 41] | 0 to 80 | 0 to 80 | B (More than 0-Less than 80) | 80 to 100 | 0 to 80 | – | B (More than 0-Less than 80) |
| COc1ccnc(C(=O)N[C@H]2COC[C@H](Cc3ccccc3)[C@@H](OCCCc3ccccc3)[C@H](C)OC2=O)c1O [Compound 28] | 0 to 80 | 0 to 80 | B (More than 0-Less than 80) | 80 to 100 | 80 to 100 | – | – |
| COc1ccnc(C(=O)N[C@H]2COC[C@H](Cc3ccccc3)[C@@H](OCCC(C)C)[C@H](C)OC2=O)c1OCOC(C)=O [Compound 42] | 80 to 100 | 80 to 100 | B (More than 0-Less than 80) | 80 to 100 | 80 to 100 | – | B (More than 0-Less than 80) |
| COc1ccnc(C(=O)N[C@H]2COC[C@H](Cc3ccccc3)[C@@H](OC/C=C/C(F)(F)F)[C@H](C)OC2=O)c1OCOC(C)=O [Compound 25] | 80 to 100 | 80 to 100 | B (More than 0-Less than 80) | 80 to 100 | 80 to 100 | – | – |
| COc1ccnc(C(=O)N[C@H]2COC[C@H](Cc3ccccc3)[C@@H](OC(=O)c3ccccc3)[C@H](C)OC2=O)c1O [Compound 30] | 0 to 80 | 0 to 80 | B (More than 0-Less than 80) | 80 to 100 | 0 to 80 | – | – |
| COc1ccnc(C(=O)N[C@H]2COC[C@H](Cc3ccccc3)[C@@H](OC/C=C/C(F)(F)F)[C@H](C)OC2=O)c1O [Compound 20] | 0 to 80 | 0 to 80 | B (More than 0-Less than 80) | 0 to 80 | 0 to 80 | – | – |
| COc1ccnc(C(=O)N[C@H]2COC[C@H](Cc3ccccc3)[C@@H](OCC(F)F)[C@H](C)OC2=O)c1O [Compound 43] | 80 to 100 | 80 to 100 | A (80-100) | 80 to 100 | 80 to 100 | – | B (More than 0-Less than 80) |
| COc1ccnc(C(=O)N[C@H]2COC[C@H](Cc3ccccc3)[C@@H](OC(=O)C3CC3)[C@H](C)OC2=O)c1O [Compound 31] | 80 to 100 | 80 to 100 | B (More than 0-Less than 80) | 80 to 100 | 80 to 100 | – | B (More than 0-Less than 80) |
| COC(=O)/C=C/O[C@@H]1[C@@H](Cc2ccccc2)COC[C@H](NC(=O)c2nccc(OC)c2O)C(=O)O[C@H]1C [Compound 27] | 0 to 80 | 0 to 80 | B (More than 0-Less than 80) | 80 to 100 | 0 to 80 | – | B (More than 0-Less than 80) |
| COc1ccnc(C(=O)N[C@H]2COC[C@H](Cc3ccccc3)[C@@H](OCCC(=O)N(C)C)[C@H](C)OC2=O)c1O [Compound 13] | 0 to 80 | 0 to 80 | – | – | 0 to 80 | – | – |
| COC(=O)CCO[C@@H]1[C@@H](Cc2ccccc2)COC[C@H](NC(=O)c2nccc(OC)c2OCOC(C)=O)C(=O)O[C@H]1C [Compound 12] | 0 to 80 | 0 to 80 | – | 80 to 100 | 0 to 80 | – | – |
| CCCC(C)O[C@@H]1[C@@H](Cc2ccccc2)COC[C@H](NC(=O)c2nccc(OC)c2OCOC(C)=O)C(=O)O[C@H]1C (some centres unmarked) [Compound 24] | 80 to 100 | 80 to 100 | B (More than 0-Less than 80) | 80 to 100 | 80 to 100 | – | B (More than 0-Less than 80) |
| COc1ccnc(C(=O)N[C@H]2COC[C@H](Cc3ccccc3)[C@@H](OCCC(C)OC)[C@H](C)OC2=O)c1O (some centres unmarked) [Compound 45] | 80 to 100 | 80 to 100 | A (80-100) | 80 to 100 | 80 to 100 | – | A (80-100) |
| COCCCO[C@@H]1[C@@H](Cc2ccccc2)COC[C@H](NC(=O)c2nccc(OC)c2O)C(=O)O[C@H]1C [Compound 14] | 80 to 100 | 0 to 80 | – | 80 to 100 | 80 to 100 | – | – |
| COc1ccnc(C(=O)N[C@H]2COC[C@H](Cc3ccccc3)[C@@H](OC3CCCC3)[C@H](C)OC2=O)c1O [Compound 105] | 80 to 100 | 80 to 100 | – | 80 to 100 | 80 to 100 | – | – |
